Measurements published in patent US5081123A, “Quinoxaline compound and their preparation and use” (Novo Nordisk A/S, priority 1988, dated 1992).
In brackets after ≈: the same amount, converted by molar mass.

What was measured:
[1] = biological target: quisqualate type receptors (3H-AMPA, rat cerebral cortical membrane homogenate); experiment: 3H-AMPA binding (displacement from quisqualate type receptors); conditions: 5 nM 3H-AMPA, 0° C., 30 min, pH 7.1
Procedure: (§1) The pharmacological properties of the compounds of the present invention can be illustrated by determining their capability for displacing radioactively labelled 2-amino-3-hydroxy-5-methyl-4-isoxazolepropionic acid (AMPA) from the quisqualate type receptors.
The displacement activity of the compounds may be shown by determining the IC50 value which represents the concentration (μg/ml) which causes a displacement of 50% of the specific binding of ^3 H-AMPA.
500 μl of thawed rat cerebral cortical membrane homogenate in Tris-HCl (30 mM), CaCl2 (2.5 mM) and KSCN (100 mM) pH 7.1 were incubated at 0° C. for 30 min. with 25 μl ^3 H-AMPA (5 nM final concentration) and the test compound and buffer. Nonspecific binding was determined by incubation with L-glutamic acid (600 μM final concentration). The binding reaction was terminated by adding 5 ml of ice-cold buffer followed by filtration through Whatman GF/C glass fibre filters and 2×5 ml wash with ice-cold buffer. Bound radioactivity was measured by scintillation counting. IC50 was determined by Hill analysis of at least four concentrations of test compound.

[2] = biological target: quisqualate receptors (quisqualic acid stimulated 3H-GABA efflux, cultured cortical neurones); experiment: Antagonism of quisqualic acid stimulated 3H-GABA efflux from cultured cortical neurones; type: cell-based, mouse; conditions: Table 1; test not stated
Procedure: as §1
The antagonism is measured by determining the EC50 value which represents the concentration which reduces the rate of quisqualic acid stimulated ^3 H-GABA efflux by 50%.
Cerebral cortices of 16 day old mouse embryos are chopped in 0.4×0.4 mm cubes. The tissue is dissociated by mild trypsinization (0.1% (wt/vol) trypsin, 37° C., 15 min) and subsequently inoculated into poly-L-lysine-coated 3 cm Petri dishes containing a slightly modified DMEM (24.5 mM KCl, 30 mM glucose) supplemented with p-aminobenzoate (7μM), insulin (100 mU/1) and 10% (vol/vol) horse serum. Cells are maintained in culture for 5-7 days with the addition of the antimitotic agent cytosine arbinoside (40 μM) from day 2 in vitro to prevent glial proliferation. For further details and references see Drejer et al. Exp. Brain Res. 47, 259 (1982)).
Release experiments are performed using the model described by Drejer et al. (Life Sci. 38, 2077 (1986)). Cerebral cortex interneurons cultured in Petri dishes (30 mm) are added 100 μM gamma-vinyl-GABA one hour before the experiment in order to inhibit degradation of GABA in the neurons. 30 min. before the experiment 5 μCi ^3 H-GABA is added to each culture and after this preloading period the cell monolayer at the bottom of the dish is covered with a piece of nylon mesh to protect the cells against mechanical damage and to facilitate dispersion of medium over the cell layer. The preloading medium is removed and the Petri dishes are placed in a superfusion system. This system consists of a peristaltic pump continuously delivering thermostated 37° C. superfusion medium (HEPES buffered saline (HBS): 10 mM HEPES, 135 mM NaCl, 5 mM KCl, […] 1.0 mM CaCl2 and 6 mM D-glucose; pH 7.4) from a reservoir to the top of the slightly tilted Petri dish. The medium is continuously collected from the lower part of the dish and delivered to a fraction collector. Initially, the cells are superfused with HBS for 15 min. (flow rate 2 ml/min.). The cells are stimulated for 30 sec. every 4 min. by changing the superfusion medium from HBS to a corresponding medium containing quisqualate and test compound. The release of ^3 H-GABA in the presence of quisqualate (stimulated release in cpm) are corrected for the mean basal release (Cpm) before and after the stimulation.

IC50 (concentration which causes a displacement of 50% of the specific binding of 3H-AMPA) [1] [µg/mL]	EC50 [2] [µg/mL]	SMILES
0.61	0.12 (≈ 0.526 µM)	O=c1[nH]c2c3ccccc3ccc2n(O)c1=O [Example 1b, 4-Hydroxy-benzo[f]quinoxaline-2,3(1H,4H)-dione]
0.39	0.1 (≈ 0.395 µM)	N#Cc1cc2c([nH]c(=O)c(=O)n2O)c2ccccc12 [Example 2c, 6-Cyano-4-hydroxy-benzo[f]quinoxaline-2,3(1H,4H)-dione]
0.23	0.16 (≈ 0.698 µM)	O=c1[nH]c2c3cccnc3ccc2n(O)c1=O [Example 4b, 4-Hydroxypyrido[3,2-f]quinoxaline-2,3(1H,4H)-dione]
0.49	0.14 (≈ 0.603 µM)	O=c1[nH]c2c3c(ccc2n(O)c1=O)CCCC3 [Example 5b, 7,8,9,10-Tetrahydro-4-hydroxybenzo[f]quinoxaline-2,3(1H,4H)-dione]
